# Data from patent US6683063B2, “Prevention and treatment of pulmonary bacterial infection or symptomatic pulmonary exposure to endotoxin by inhalation of antiendotoxin drugs” (Eisai Co., Ltd., priority 1995, dated 2004).
# Tested on: LPS-induced TNF-α in human whole blood
# Assay: Persistence of compounds in human whole blood (preincubation, then LPS challenge, cytokine assay)
# Format: cell-based
# Conditions: average of 7 separate experiments in triplicate, FIG. 3
# Protocol: FIG. 2 depicts the general scheme used to analyze antagonistic efficacy of drug after incubation in whole blood for various times.
# Although some of the compounds of this invention are not rapidly removed from the circulation, their activity diminishes with a half-life of 1-3 hours. To maintain antagonistic efficacy, this rapid deactivation may require continuous administration. The study of this deactivation has led to the development of an assay to measure in vitro deactivation of drugs in human whole blood. This is done by preincubating lipid A antagonists with blood for various periods of time followed by addition of the LPS “challenge,” as is described above, incubation for three hours, and assay for released cytokines.
smiles,measurement,value
CCCCCCCCCCCC(=O)CC(=O)N[C@H]1[C@@H](OP(=O)(O)O)OC(CO[C@@H]2O[C@H](COC)[C@@H](OP(=O)(O)O)C(OCCC(CCCCCCC)OC(=O)CCC/C=C/C(C)CCCC)[C@H]2NC(=O)CC(=O)CCCCCCCCCCC)[C@@H](O)[C@@H]1OCC[C@H](O)CCCCCCC (stereo partly shown) [Compound B531],persistence of LPS-antagonist activity (inhibition of TNF-α) versus time of preincubation,loses activity with increasing time of preincubation
